The results in this text go back to patent publication US20200138827A1, “SMALL MOLECULE MODULATORS OF HUMAN STING” (Curadev Pharma Limited, priority 2017, published 2020).

One test concerns NF-κB pathway. Description: Reporter gene expression assay in THP1-Dual cells, NFkB axis (secreted SEAP). The format is cell-based, human. As to conditions: read-out: THP-NFKB activity (EC50 range). As for the experimental part: (§1) THP1-Dual™ cells (Invivogen) were derived from the human THP-1 monocyte cell line by stable integration of two inducible reporter constructs. As a result, THP1-Dual™ cells allow the simultaneous study of the NF-κB pathway, by monitoring the activity of secreted SEAP, and the IRF pathway, by assessing the activity of a secreted luciferase (Lucia). […] THP1-Dual™ cells were seeded in 384-well plates in growth medium and stimulated with novel compounds. After […] of stimulation supernatant were removed and reporter proteins were readily measured in the cell culture supernatant using QUANTI-Blue™ (Invivogen), a SEAP detection reagent, and QUANTI-Luc™ (Invivogen), a luciferase detection reagent on a Spectramax i3X luminometer.
For orientation: Reporter assays use an easily measured gene product as a stand-in for the process of interest.

Another test has as its target T1, hSTING(H232) (Homo sapiens, UniProt Q86WV6).
T1 construct: host or cells: HEK293T
The test is described as follows: Luciferase reporter assay in HEK293T-hSTING-Luciferase cells, H232 polymorph. The format is cell-based. As to conditions: 20 hr stimulation, read-out: H232 activity (EC50 range). From the text:
(§2) • a) Stable STING expressing cells—Stable HEK293T STING-expressing cell lines were generated using plasmids purchased from Invivogen, Calif., USA, that contain STING cDNA cloned into the pUNO-1 vector under hEF1-HTLV promoter and containing the Blasticidin selection cassette. The plasmids hSTING(R232), hSTING(H232), hSTING(HAQ) were directly procured from Invivogen while hSTING (AQ) and hSTING (Q) were derived from hSTING(HAQ) and hSTING (R232) plasmids respectively by using a PCR based site directed mutagenesis method. These vectors were individually transfected into HEK293T cells using Lipofectamine (Invitrogen) and transfected cells were selected under Blasticidin selection. These transfected cells were further subjected to clonal selection using the limiting dilution method to obtain clonally pure populations of HEK cells transfected with each of the above mentioned human STING variants. Only those clones were selected in which ligand independent activation of STING was minimal. • b) Stable Luciferase reporter gene expressing cells—Stable HEK293T Luciferase reporter gene expressing cell lines were generated using pCDNA4 plasmids under an IRF-inducible promoter. This promoter is comprised of five tandem interferon-stimulated response elements (ISRE) fused to an ISG54 minimal promoter. This vector was transfected into HEK293T cells using Lipofectamine (Invitrogen) and transfected cells were selected under Zeocin selection. These transfected cells were further subjected to clonal selection using the limiting dilution method to obtain clonally pure populations of HEK cells transfected the Luciferase reporter construct. Only those clones were selected in which ligand independent induction of luciferase was minimal.
(§3) 5×10^5 clonally selected HEK293T-hSTING-Luciferase cells were seeded in 384-well plates in growth medium and stimulated with novel compounds. After 20 hr of stimulation supernatant were removed and secretary reporter gene activity were measured using the Quanti-Luc detection system (Invivogen) on a Spectramax i3X luminometer.
(§4) The 5 major polymorphisms of human STING are shown in FIG. 1, with their prevalence in human populations indicated.

Another test relates to IRF pathway. The test is described as follows: Reporter gene expression assay in THP1-Dual cells, IRF axis (secreted Lucia luciferase). The format is cell-based, human. As to conditions: read-out: THP-IRF activity (EC50 range). As for the experimental part:
as §1

The target in a further test is T2, WT/R232 STING protein (Homo sapiens, UniProt Q86WV6, H232R).
T2 construct: host or cells: HEK293T
Description: Luciferase reporter assay in HEK293T-hSTING-Luciferase cells, WT/R232. The note with it: 20 hr stimulation, read-out: R232 Activity (EC50 range). The class given is cell-based. The method, boiled down:
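Clonal HEK293T cells stably expressing human STING R232 plus an ISRE/ISG54-driven luciferase reporter, 5×10^5 per well, stimulated with compounds for 20 h. Secreted luciferase in supernatant measured by luminescence; […].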

The target of another test is T3, hSTING(HAQ) (Homo sapiens, UniProt Q86WV6, G230A/H232R/R293Q/R71H).
T3 construct: host or cells: HEK293T
Description: Luciferase reporter assay in HEK293T-hSTING-Luciferase cells, HAQ polymorph. As to conditions: 20 hr stimulation, read-out: HAQ activity (EC50 range). The class given is cell-based.
Source text: as §2, §3, §4

Read-outs that look alike come from different tables or passages of the source.

T1 sequence (Q86WV6 whole entry): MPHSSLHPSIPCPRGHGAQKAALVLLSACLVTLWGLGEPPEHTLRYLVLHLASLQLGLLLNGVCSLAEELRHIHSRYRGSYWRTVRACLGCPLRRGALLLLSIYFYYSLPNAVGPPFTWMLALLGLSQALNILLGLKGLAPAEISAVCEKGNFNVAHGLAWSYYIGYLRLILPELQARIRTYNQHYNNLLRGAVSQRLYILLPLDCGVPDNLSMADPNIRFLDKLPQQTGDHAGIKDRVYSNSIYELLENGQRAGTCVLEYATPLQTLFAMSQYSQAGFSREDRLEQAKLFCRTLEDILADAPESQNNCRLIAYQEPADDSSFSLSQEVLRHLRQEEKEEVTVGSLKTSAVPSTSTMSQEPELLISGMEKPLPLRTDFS
T3 sequence (Q86WV6 whole entry R71H/G230A/H232R/R293Q): as the sequence (Q86WV6 whole entry) above, with R71H, G230A, H232R, R293Q counted along it
T2 sequence (Q86WV6 whole entry H232R): as the sequence (Q86WV6 whole entry) above, with H232R counted along it

Broadly, the EC50 is the concentration giving half of the maximal effect. Turning to `CC1(C)Sc2ccc(C(=O)NCC3CCCCC3)cc2N(Cc2ccccc2F)C1=O` [Example 136, N-(cyclohexylmethyl)-4-(2-fluorobenzyl)-2,2-dimethyl-3-oxo-3,4-dihydro-2H-benzo[b-1,4]thiazine-6-carboxamide], the EC50 in the test with NF-κB pathway (Homo sapiens, THP1-Dual) is more than 10 µM; on hSTING(H232), more than 10 µM; in the test on IRF pathway (Homo sapiens, THP1-Dual), more than 10 µM; at WT/R232 STING protein, 1 to 10 µM; on hSTING(HAQ), more than 10 µM.
In the case of `CC1Sc2ccc(C(=O)NCc3c(F)cc(F)cc3F)cc2N(Cc2c(F)cccc2Cl)C1=O` (centres unmarked) [Example 138, 4-(2-chloro-6-fluorobenzyl)-2-methyl-3-oxo-N-(2,4,6-trifluorobenzyl)-3,4-dihydro-2H-benzo[b-1,4]thiazine-6-carboxamide], the EC50 with NF-κB pathway (Homo sapiens, THP1-Dual) is 1 to 10 µM; at hSTING(H232) it was less than 1 µM; in the test on IRF pathway (Homo sapiens, THP1-Dual), 1 to 10 µM; on WT/R232 STING protein, less than 1 µM; on hSTING(HAQ), less than 1 µM.
On to `Cc1cccc(CNC(=O)c2ccc3c(c2)N(Cc2ccccc2F)C(=O)C(C)S3)c1` (centres unmarked) [Example 141, 4-(2-fluorobenzyl)-2-methyl-N-(3-methylbenzyl)-3-oxo-3,4-dihydro-2H-benzo[b-1,4]thiazine-6-carboxamide], for which the EC50 with NF-κB pathway (Homo sapiens, THP1-Dual) is 1 to 10 µM; on hSTING(H232), 1 to 10 µM; in the test on IRF pathway (Homo sapiens, THP1-Dual) it was 1 to 10 µM; at WT/R232 STING protein it was less than 1 µM; on hSTING(HAQ) it was less than 1 µM.
As to `Cc1cccc(CNC(=O)c2ccc3c(c2)N(Cc2cc(F)cc(F)c2)C(=O)C(C)S3)c1` (centres unmarked) [Example 144, 4-(3,5-difluorobenzyl)-2-methyl-N-(3-methylbenzyl)-3-oxo-3,4-dihydro-2H-benzo[b-1,4]thiazine-6-carboxamide], the EC50 with NF-κB pathway (Homo sapiens, THP1-Dual) is 1 to 10 µM; on hSTING(H232), 1 to 10 µM; with IRF pathway (Homo sapiens, THP1-Dual), 1 to 10 µM; at WT/R232 STING protein, less than 1 µM; at hSTING(HAQ), 1 to 10 µM.
With `CC1Sc2ccc(C(=O)NCc3c(F)cc(F)cc3F)cc2N(Cc2cc(F)cc(F)c2)C1=O` (centres unmarked) [Example 145, 4-(3,5-difluorobenzyl)-2-methyl-3-oxo-N-(2,4,6-trifluorobenzyl)-3,4-dihydro-2H-benzo[b-1,4]thiazine-6-carboxamide], the EC50 was 1 to 10 µM in the test on NF-κB pathway; less than 1 µM at hSTING(H232); 1 to 10 µM with IRF pathway; less than 1 µM on WT/R232 STING protein; less than 1 µM at hSTING(HAQ).
Consider `C=CCC1Sc2ccc(C(=O)NCc3c(F)cc(F)cc3F)cc2N(Cc2c(F)cccc2Cl)C1=O` (centres unmarked) [Example 146, 2-allyl-4-(2-chloro-6-fluorobenzyl)-3-oxo-N-(2,4,6-trifluorobenzyl)-3,4-dihydro-2H-benzo[b-1,4]thiazine-6-carboxamide], for which the EC50 in the test with NF-κB pathway (Homo sapiens, THP1-Dual) is more than 10 µM; at hSTING(H232) it was 1 to 10 µM; in the test with IRF pathway (Homo sapiens, THP1-Dual), more than 10 µM; at WT/R232 STING protein, less than 1 µM; at hSTING(HAQ), 1 to 10 µM.
As to `CCCC1Sc2ccc(C(=O)NCc3c(F)cc(F)cc3F)cc2N(Cc2c(F)cccc2Cl)C1=O` (centres unmarked) [Example 147, 4-(2-chloro-6-fluorobenzyl)-3-oxo-2-propyl-N-(2,4,6-trifluorobenzyl)-3,4-dihydro-2H-benzo[b-1,4]thiazine-6-carboxamide], the half-maximal effective concentration (EC50) in the test with NF-κB pathway (Homo sapiens, THP1-Dual) was more than 10 µM; at hSTING(H232), 1 to 10 µM; with IRF pathway (Homo sapiens, THP1-Dual), more than 10 µM; at WT/R232 STING protein it was less than 1 µM; on hSTING(HAQ), 1 to 10 µM.
As for `CC1Sc2ccc(C(=O)NCc3c(F)cc(F)cc3F)cc2N(Cc2cc(F)cc(F)c2)C1=O` (centres unmarked) [Example 148, 4-(3,5-difluorobenzyl)-2-methyl-3-oxo-N-(2,4,6-trifluorobenzyl)-3,4-dihydro-2H-benzo[b][1,4] thiazine-6-carboxamide], the EC50 is less than 1 µM in the test with NF-κB pathway; less than 1 µM at hSTING(H232); 1 to 10 µM with IRF pathway; less than 1 µM on WT/R232 STING protein; less than 1 µM at hSTING(HAQ).
Consider `CC1Sc2ccc(C(=O)NCc3cc4ccccc4o3)cc2N(Cc2cc(F)cc(F)c2)C1=O` (centres unmarked) [Example 149, N-(benzofuran-2-ylmethyl)-4-(3,5-difluorobenzyl)-2-methyl-3-oxo-3,4-dihydro-2H-benzo[b][1,4] thiazine-6-carboxamide], for which the 50% effective concentration (EC50) in the test with NF-κB pathway (Homo sapiens, THP1-Dual) was less than 1 µM; on hSTING(H232) it was less than 1 µM; in the test with IRF pathway (Homo sapiens, THP1-Dual), 1 to 10 µM; on WT/R232 STING protein it was less than 1 µM; on hSTING(HAQ) it was less than 1 µM.
Consider `CC1(CO)Sc2ccc(C(=O)NCc3ccc(F)cc3F)cc2N(Cc2c(F)cccc2Cl)C1=O` (centres unmarked) [Example 151, 4-(2-chloro-6-fluorobenzyl)-N-(2,4-difluorobenzyl)-2-(hydroxymethyl)-2-methyl-3-oxo-3,4-dihydro-2H-benzo[b][1,4] thiazine-6-carboxamide], for which the EC50 with NF-κB pathway (Homo sapiens, THP1-Dual) is 1 to 10 µM; on hSTING(H232), 1 to 10 µM; with IRF pathway (Homo sapiens, THP1-Dual), 1 to 10 µM; at WT/R232 STING protein, less than 1 µM; at hSTING(HAQ), 1 to 10 µM.
For the compound `Cc1ccc(CNC(=O)c2ccc3c(c2)N(Cc2cc(F)cc(F)c2)C(=O)C(C)S3)o1` (centres unmarked) [Example 152, 4-(3,5-difluorobenzyl)-2-methyl-N-((5-methylfuran-2-yl)methyl)-3-oxo-3,4-dihydro-2H-benzo[b][1,4] thiazine-6-carboxamide], the EC50 with NF-κB pathway (Homo sapiens, THP1-Dual) was more than 10 µM; on hSTING(H232), more than 10 µM; in the test with IRF pathway (Homo sapiens, THP1-Dual), more than 10 µM; on WT/R232 STING protein, less than 1 µM; at hSTING(HAQ), more than 10 µM.
As to `CC1Sc2ccc(C(=O)NCc3c(F)cc(F)cc3F)cc2N(Cc2cc(F)cc(F)c2)C1=O` (centres unmarked) [Example 153, 4-(3,5-difluorobenzyl)-2-methyl-3-oxo-N-(2,4,6-trifluorobenzyl)-3,4-dihydro-2H-benzo[b][1,4] thiazine-6-carboxamide], the EC50 was 1 to 10 µM with NF-κB pathway (Homo sapiens, THP1-Dual); 1 to 10 µM on hSTING(H232); 1 to 10 µM in the test on IRF pathway (Homo sapiens, THP1-Dual); less than 1 µM on WT/R232 STING protein; 1 to 10 µM at hSTING(HAQ).
As for `CC1(C)Sc2ccc(C(=O)NCc3cc4ccccc4o3)cc2N(Cc2c(F)cccc2Cl)C1=O` [Example 154, N-(benzofuran-2-ylmethyl)-4-(2-chloro-6-fluorobenzyl)-2,2-dimethyl-3-oxo-3,4-dihydro-2H-benzo[b][1,4] thiazine-6-carboxamide], the EC50 in the test on NF-κB pathway (Homo sapiens, THP1-Dual) is 1 to 10 µM; at hSTING(H232) it was 1 to 10 µM; in the test on IRF pathway (Homo sapiens, THP1-Dual), 1 to 10 µM; at WT/R232 STING protein, less than 1 µM; on hSTING(HAQ) it was less than 1 µM.
Turning to `CC1Sc2ccc(C(=O)NCc3ccco3)cc2N(Cc2cc(F)cc(F)c2)C1=O` (centres unmarked) [Example 156, 4-(3,5-difluorobenzyl)-N-(furan-2-ylmethyl)-2-methyl-3-oxo-3,4-dihydro-2H-benzo [b][1,4]thiazine-6-carboxamide], the EC50 in the test with NF-κB pathway (Homo sapiens, THP1-Dual) is 1 to 10 µM; at hSTING(H232), 1 to 10 µM; in the test on IRF pathway (Homo sapiens, THP1-Dual), 1 to 10 µM; at WT/R232 STING protein, less than 1 µM; on hSTING(HAQ), 1 to 10 µM.
In the case of `CC1Sc2ccc(C(=O)NCc3c(F)cc(F)cc3F)cc2N(Cc2ccncc2)C1=O` (centres unmarked) [Example 157, 2-methyl-3-oxo-4-(pyridin-4-ylmethyl)-N-(2,4,6-trifluorobenzyl)-3,4-dihydro-2H-benzo[b][1,4] thiazine-6-carboxamide], the EC50 in the test on NF-κB pathway (Homo sapiens, THP1-Dual) was 1 to 10 µM; at hSTING(H232), 1 to 10 µM; in the test with IRF pathway (Homo sapiens, THP1-Dual), 1 to 10 µM; at WT/R232 STING protein, less than 1 µM; on hSTING(HAQ), 1 to 10 µM.
For `Cc1cc(CN2C(=O)C(C)Sc3ccc(C(=O)NCc4c(F)cc(F)cc4F)cc32)on1` (centres unmarked) [Example 158, 2-methyl-4-((3-methylisoxazol-5-yl)methyl)-3-oxo-N-(2,4,6-trifluorobenzyl)-3,4-dihydro-2H-benzo[b][1,4] thiazine-6-carboxamide], the EC50 is 1 to 10 µM in the test on NF-κB pathway (Homo sapiens, THP1-Dual); 1 to 10 µM on hSTING(H232); 1 to 10 µM in the test on IRF pathway (Homo sapiens, THP1-Dual); less than 1 µM on WT/R232 STING protein; 1 to 10 µM at hSTING(HAQ).
